In patent US20090208517A1, “Preparation Of Antigen-Presenting Human Gamma-Delta T Cells And Use In Immunotherapy” (priority 2004, published 2009):

Test system: naïve CD4^+ αβ T cells
Assay type: cell-based, human

phytohemagglutinin [PHA] was tested, and the “Vβ2^+ (%) responder cells” value was 9% and the “selective expansion of Vβ2^+ T cells (in words)” value was “does not result in selective expansion of Vβ2^+ T cells”.
